Counter-ions that a name gives are not always drawn. Like-named read-outs stand apart in the source and are kept apart here.
Columns and labels:
mouse TAAR1 = mouse TAAR1 (Mus musculus (Mouse), UniProt Q923Y8); assay: Radioligand binding assay on mouse TAAR1; conditions: read-out: Ki (μM) mouse
Procedure, shortened: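 Displacement of the tritiated oxazol-2-ylamine radioligand was measured by filtration and scintillation counting after 1 h incubation at 4 °C. Test concentrations ran 10 pM–10 μM in duplicate, with 10 μM cold ligand giving nonspecific binding. The receptor source was membranes of a stable mouse TAAR1 HEK293 line.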

rat TAAR1 = rat TAAR1 (Rattus norvegicus (Rat), UniProt Q923Y9); assay: Radioligand binding assay on rat TAAR1; conditions: read-out: Ki (μM) rat
rat TAAR1, sequence (Q923Y9 whole entry): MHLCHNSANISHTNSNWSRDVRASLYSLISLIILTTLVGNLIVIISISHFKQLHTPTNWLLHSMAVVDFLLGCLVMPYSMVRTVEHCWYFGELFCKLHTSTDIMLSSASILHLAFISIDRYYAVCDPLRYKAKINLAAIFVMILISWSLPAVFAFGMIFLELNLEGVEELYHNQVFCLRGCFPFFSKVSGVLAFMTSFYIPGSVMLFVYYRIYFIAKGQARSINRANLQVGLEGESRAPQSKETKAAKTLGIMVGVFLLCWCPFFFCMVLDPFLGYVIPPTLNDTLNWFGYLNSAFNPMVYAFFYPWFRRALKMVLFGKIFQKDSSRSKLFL
Procedure, shortened: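 Membranes from HEK293 cells stably expressing rat TAAR1, with Kd checked per batch by saturation. Competition with ³H-(S)-4-[(ethyl-phenyl-amino)-methyl]-4,5-dihydro-oxazol-2-ylamine, compounds 10 pM–10 μM in duplicate, 1 hr at 4 °C. Filtration then scintillation counting; nonspecific binding defined with 10 μM unlabeled ligand.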

[1] = rat TAAR1, HEK-293 membranes, second value of cell mouse/rat
[2] = mouse TAAR1, HEK-293 membranes, first value of cell mouse/rat

mouse TAAR1, sequence (Q923Y8 whole entry): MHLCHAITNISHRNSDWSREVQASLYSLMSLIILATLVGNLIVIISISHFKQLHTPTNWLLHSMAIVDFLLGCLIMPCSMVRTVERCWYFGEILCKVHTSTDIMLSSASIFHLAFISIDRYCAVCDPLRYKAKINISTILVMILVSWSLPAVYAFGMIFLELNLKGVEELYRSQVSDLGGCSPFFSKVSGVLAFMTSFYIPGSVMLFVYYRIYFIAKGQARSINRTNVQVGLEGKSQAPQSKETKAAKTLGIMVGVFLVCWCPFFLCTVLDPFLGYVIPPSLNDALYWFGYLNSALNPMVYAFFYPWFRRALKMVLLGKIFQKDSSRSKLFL

| SMILES | Ki (mouse TAAR1) | Ki (rat TAAR1; [1]) | Ki (mouse TAAR1; [2]) | Ki (rat TAAR1) |
| --- | --- | --- | --- | --- |
| O=C(Nc1ccc(C2CNCCO2)cc1)c1cnc(-c2ccccc2)s1 (racemic) [Example 231, (RS)—N-(4-(Morpholin-2-yl)phenyl)-2-phenylthiazole-5-carboxamide hydrochloride] | 0.0043 µM | 0.0014 µM |  |  |
| O=C(Nc1ccc(C2CNCCO2)cc1)c1ccc(OC2CCOCC2)nc1 (racemic) [Example 232, (RS)—N-(4-(Morpholin-2-yl)phenyl)-6-(tetrahydro-2H-pyran-4-yloxy)nicotinamide hydrochloride] |  | 0.0317 µM | 0.15 µM |  |
| O=C(Nc1ccc(C2CNCCO2)cc1)c1csc(-c2ccccc2)n1 (racemic) [Example 233, (RS)—N-(4-(Morpholin-2-yl)phenyl)-2-phenylthiazole-4-carboxamide hydrochloride] |  | 0.0014 µM | 0.0008 µM |  |
| O=C(Nc1ccc(C2CNCCO2)cc1)c1ccc(N2CCOCC2)nc1 (racemic) [Example 241, (RS)—N-(4-(Morpholin-2-yl)phenyl)-6-morpholinonicotinamide hydrochloride] |  | 0.116 µM | 1.55 µM |  |
| CCOc1ccc(C(=O)Nc2ccc(C3CNCCO3)cc2)cn1 (racemic) [Example 245, (RS)-6-Ethoxy-N-(4-(morpholin-2-yl)phenyl)nicotinamide hydrochloride] |  | 0.0063 µM | 0.0649 µM |  |
| O=C(Nc1ccc(C2CNCCO2)cc1)c1coc(-c2ccccc2)n1 (racemic) [Example 249, (RS)—N-(4-(Morpholin-2-yl)phenyl)-2-phenyloxazole-4-carboxamide hydrochloride] |  | 0.0024 µM | 0.0025 µM |  |
| CO[C@H]1CC[C@@H](C(=O)Nc2ccc(C3CNCCO3)cc2)CC1 (mixture of isomers) [Example 254, cis-(RS)-4-Methoxy-N-(4-(morpholin-2-yl)phenyl)cyclohexanecarboxamide hydrochloride] |  | 0.726 µM | 2.82 µM |  |
| CO[C@H]1CC[C@H](C(=O)Nc2ccc(C3CNCCO3)cc2)CC1 (mixture of isomers) [Example 255, trans-(RS)-4-Methoxy-N-(4-(morpholin-2-yl)phenyl)cyclohexanecarboxamide hydrochloride] |  | 0.428 µM | 5.1 µM |  |
| O=C(Nc1ccc(C2CNCCO2)cc1)c1ccc(C(F)(F)F)nc1 (racemic) [Example 272, (RS)—N-(4-(Morpholin-2-yl)phenyl)-6-(trifluoromethyl)nicotinamide hydrochloride] |  |  | 0.0214 µM | 0.0169 µM |
| Cc1cc(C(=O)Nc2ccc(C3CNCCO3)cc2)cc(Cl)n1 (racemic) [Example 273, (RS)-2-Chloro-6-methyl-N-(4-(morpholin-2-yl)phenyl)isonicotinamide hydrochloride] | 0.0343 µM | 0.008 µM |  |  |
| Cc1cccc(C(=O)Nc2ccc(C3CNCCO3)cc2)c1 (racemic) [Example 277, (RS)-3-Methyl-N-(4-(morpholin-2-yl)phenyl)benzamide hydrochloride] | 0.0472 µM | 0.0036 µM |  |  |
| O=C(Nc1ccc(C2CNCCO2)cc1)c1ccc(N2CCCC2)nc1 (racemic) [Example 279, (RS)—N-(4-(Morpholin-2-yl)phenyl)-6-(pyrrolidin-1-yl)nicotinamide hydrochloride] |  | 0.0044 µM | 0.146 µM |  |
| O=C(Nc1ccc(C2CNCCO2)cc1)c1ccnc(C(F)(F)F)c1 (racemic) [Example 280, (RS)—N-(4-(Morpholin-2-yl)phenyl)-2-(trifluoromethyl)isonicotinamide hydrochloride] |  | 0.0069 µM | 0.0172 µM |  |
| O=C(Nc1ccc(C2CNCCO2)cc1)c1csc(-c2cnccn2)n1 (racemic) [Example 288, (RS)—N-(4-(Morpholin-2-yl)phenyl)-2-(pyrazin-2-yl)thiazole-4-carboxamide hydrochloride] | 0.0278 µM | 0.0075 µM |  |  |
| O=C(Nc1ccc(C2CNCCO2)cc1)c1csc(-c2ncccn2)n1 (racemic) [Example 290, (RS)—N-(4-(Morpholin-2-yl)phenyl)-2-(pyrimidin-2-yl)thiazole-4-carboxamide hydrochloride] |  | 0.324 µM | 0.0608 µM |  |
| O=C(Nc1ccc(C2CNCCO2)cc1)Nc1ccc(C(F)(F)F)cc1 (racemic) [Example 291, (RS)-1-(4-(Morpholin-2-yl)phenyl)-3-(4-(trifluoromethyl)phenyl)urea hydrochloride] |  |  | 0.0012 µM | 0.0017 µM |
| O=C(Nc1ccc(Cl)cc1)Nc1ccc(C2CNCCO2)cc1 (racemic) [Example 292, (RS)-1-(4-Chlorophenyl)-3-(4-(morpholin-2-yl)phenyl)urea hydrochloride] |  | 0.001 µM | 0.001 µM |  |
| Cc1ccc(NC(=O)Nc2ccc(C3CNCCO3)cc2)cc1 (racemic) [Example 293, (RS)-1-(4-(Morpholin-2-yl)phenyl)-3-p-tolylurea hydrochloride] |  | 0.0014 µM | 0.0074 µM |  |
| Cc1cc(C(=O)Nc2ccc(C3CNCCO3)cc2)ccn1 (racemic) [Example 294, (RS)-2-Methyl-N-(4-(morpholin-2-yl)phenyl)isonicotinamide dihydrochloride] |  | 0.0226 µM | 1.18 µM |  |
| Cc1cc(C(=O)Nc2ccc(C3CNCCO3)cc2)cc(C)n1 (racemic) [Example 295, (RS)-2,6-Dimethyl-N-(4-(morpholin-2-yl)phenyl)isonicotinamide dihydrochloride] |  | 1.2 µM | 0.235 µM |  |
| Cn1cc(-c2nc(C(=O)Nc3ccc(C4CNCCO4)cc3)cs2)cn1 (racemic) [Example 296, (RS)-2-(1-Methyl-1H-pyrazol-4-yl)-N-(4-(morpholin-2-yl)phenyl)thiazole-4-carboxamide hydrochloride] |  | 0.0847 µM | 0.0645 µM |  |
| Cc1nc(-c2cnccn2)sc1C(=O)Nc1ccc(C2CNCCO2)cc1 (racemic) [Example 298, (RS)-4-Methyl-N-(4-(morpholin-2-yl)phenyl)-2-(pyrazin-2-yl)thiazole-5-carboxamide hydrochloride] | 0.0506 µM | 0.0143 µM |  |  |
| O=C(Nc1ccc(C2CNCCO2)cc1)c1ccn(-c2ccccc2)n1 (racemic) [Example 299, (RS)—N-(4-(Morpholin-2-yl)phenyl)-1-phenyl-1H-pyrazole-3-carboxamide hydrochloride] |  | 0.0014 µM | 0.0022 µM |  |
| CCOc1cc(C(=O)Nc2ccc(C3CNCCO3)cc2)ccn1 (racemic) [Example 300, (RS)-2-Ethoxy-N-(4-(morpholin-2-yl)phenyl)isonicotinamide hydrochloride] |  | 0.002 µM | 0.0726 µM |  |
| O=C(Nc1ccc(C2CNCCO2)cc1)Nc1ccc(Cl)nc1 (racemic) [Example 302, (RS)-1-(6-Chloropyridin-3-yl)-3-(4-(morpholin-2-yl)phenyl)urea hydrochloride] |  | 0.0056 µM | 0.0574 µM |  |
| O=C(Nc1ccc(C2CNCCO2)cc1)Nc1cccc(Cl)c1 (racemic) [Example 303, (RS)-1-(3-Chlorophenyl)-3-(4-(morpholin-2-yl)phenyl)urea hydrochloride] |  | 0.0005 µM | 0.002 µM |  |
| Cc1cccc(NC(=O)Nc2ccc(C3CNCCO3)cc2)c1 (racemic) [Example 304, (RS)-1-(4-(Morpholin-2-yl)phenyl)-3-m-tolylurea hydrochloride] |  | 0.0012 µM | 0.0071 µM |  |
| O=C(Nc1ccc(C2CNCCO2)cc1)Nc1ccccc1Cl (racemic) [Example 305, (RS)-1-(2-Chlorophenyl)-3-(4-(morpholin-2-yl)phenyl)urea hydrochloride] |  |  | 0.0266 µM | 0.0038 µM |

— patent publication US9452980B2, “Substituted benzamides” (Hoffmann-La Roche Inc., priority 2009, dated 2016)
